{
  "source": "patent US8323627B2",
  "about": "“Monoester of N-undecylenoyl phenylalanine and polyol, method for preparing same, and use of said esters as a skin lightening agent” (Societe d'Exploitation de Produits pour les Industries …, priority 2008, dated 2012)",
  "key": {"B16/F1 melanocytes [1]": {"system": "B16/F1 melanocytes", "assay": "Inhibition of extracellular melanin production in B16/F1 melanocyte cultures", "type": "cell-based, Mouse", "conditions": "for % Inhibition of extracellular melanin production relative to the control / Extracellular melanin (control: 98 μg ± 4 μg/ml): 72 hours incubation; for Depigmenting effect (summary in text of Table 1): B16/F1 melanocytes, doses of Table 1", "procedure": "The influence of N-undecylenoyl phenylalanine monoglyceride, arbutin and N-undecylenoyl phenylalanine on the production of extracellular melanin, in B16/F1 melanocyte cultures, was compared.\nMouse melanocytes of the B16/F1 line cultured as monolayers are seeded in 96-well culture plates at a density of 1500 cells/well. The cells are cultured in a culture medium (MCM medium) at 37° C. under a humid atmosphere containing 5% CO2. The cells are used at 50% of confluence. The MCM medium has the following composition: DMEM medium (Dulbecco's Modified Eagle's Medium) containing 4.5 g/l of glucose supplemented with L-glutamine (2 mM), penicillin (50 IU/ml), streptomycin (50 μg/ml) and fetal calf serum (10% v/v). […] The melanocyte cultures are incubated in the presence of the test product or of the reference products for 72 hours at 37° C., under a humid atmosphere containing 5% CO2. Control cultures are incubated, in the absence of product, in the MCM medium. These control cultures are prepared on each culture plate. Each test is performed six times. After incubation for 72 hours, the incubation media of the cells (n=6) are taken up and stored at −80° C. until the time of evaluation of the effects. The extracellular melanin is quantified by spectrophotometry at 450 nm. A melanin calibration range is prepared in parallel. The results are expressed as μg/ml of extracellular melanin and as a percentage of inhibition relative to the control group in Table 1 below."}, "B16/F1 melanocytes [2]": {"system": "B16/F1 melanocytes", "assay": "Cytotoxic effect in B16/F1 melanocyte cultures (Bradford total protein)", "type": "cell-based, Mouse", "conditions": "for Cytotoxic effects (summary of Table 2): B16/F1 melanocytes, doses of Table 2; for % Decrease of the total amount of protein relative to the control / Evaluation (cytotoxicity): 72 hours incubation", "procedure": "Study of the Cytotoxic Effect of the Compound of Formula (I) in B16/F1 melanocyte Cultures\nEvaluation of the presence of cytotoxic effects is performed using the Bradford technique by staining with Coomassie blue (Bradford M., “A rapid and sensitive method for the quantification of microgram quantities of protein utilizing the principle of protein-dye binding”, Anal. Biochem., 1976, 72, 248-254). The B16/F1 melanocytes are incubated after seeding with the dilutions of the test products. After 72 hours of incubation, the B16/F1 melanocytes are washed and then lyzed, and Bradford's reagent is then added. After incubation for 5 minutes at room temperature, a spectrophotometric reading is taken at 640 nm in parallel with an albumin calibration range. The cytotoxicity is proven for a decrease greater than or equal to 20% of the total amount of protein. The results are expressed as a percentage decrease of the total amount of protein, in Table 2 below."}},
  "data": [
    {"smiles": "OC[C@H]1O[C@@H](Oc2ccc(O)cc2)[C@H](O)[C@@H](O)[C@@H]1O", "note": "[Arbutin, reference compound]", "values": [
      {"measurement": "% Inhibition of extracellular melanin production relative to the control", "setting": "B16/F1 melanocytes [1]; test product 40 μg/ml", "result": 61, "unit": "%"},
      {"measurement": "Extracellular melanin (control: 98 μg ± 4 μg/ml)", "setting": "B16/F1 melanocytes [1]; test product 40 μg/ml, n=6", "result": "39 ± 3", "unit": "µg/mL"}
    ]},
    {"smiles": "C=CCCCCCCCCC(=O)N[C@@H](Cc1ccccc1)C(=O)O", "note": "[N-Undecylenoyl phenylalanine, N-undecylenoyl phenylalanine]", "values": [
      {"measurement": "% Inhibition of extracellular melanin production relative to the control", "setting": "B16/F1 melanocytes [1]; test product 40 μg/ml", "result": 40, "unit": "%"},
      {"measurement": "Extracellular melanin (control: 98 μg ± 4 μg/ml)", "setting": "B16/F1 melanocytes [1]; test product 40 μg/ml, n=6", "result": "59 ± 3", "unit": "µg/mL"},
      {"measurement": "% Inhibition of extracellular melanin production relative to the control", "setting": "B16/F1 melanocytes [1]; test product 80 μg/ml", "result": "Cytotoxicity"},
      {"measurement": "Extracellular melanin (control: 98 μg ± 4 μg/ml)", "setting": "B16/F1 melanocytes [1]; test product 80 μg/ml", "result": "Cytotoxicity"},
      {"measurement": "Cytotoxic effects (summary of Table 2)", "setting": "B16/F1 melanocytes [2]", "result": "cytotoxic"},
      {"measurement": "% Decrease of the total amount of protein relative to the control", "setting": "B16/F1 melanocytes [2]; test product 50 μg/ml", "result": 32, "unit": "%"},
      {"measurement": "Evaluation (cytotoxicity)", "setting": "B16/F1 melanocytes [2]; test product 50 μg/ml", "result": "Cytotoxic (The cytotoxicity is proven for a decrease greater than or equal to 20% of the total amount of protein)"},
      {"measurement": "% Decrease of the total amount of protein relative to the control", "setting": "B16/F1 melanocytes [2]; test product 80 μg/ml", "result": 80, "unit": "%"},
      {"measurement": "Evaluation (cytotoxicity)", "setting": "B16/F1 melanocytes [2]; test product 80 μg/ml", "result": "Cytotoxic (The cytotoxicity is proven for a decrease greater than or equal to 20% of the total amount of protein)"}
    ]},
    {"smiles": "C=CCCCCCCCCC(=O)NC(Cc1ccccc1)C(=O)OCC(O)COCC(O)CO", "note": "(stereo not shown) [Compound (B), N-undecylenoyl phenylalanine diglyceryl ester]", "values": [
      {"measurement": "Depigmenting effect (summary in text of Table 1)", "setting": "B16/F1 melanocytes [1]", "result": "depigmenting effect"},
      {"measurement": "% Inhibition of extracellular melanin production relative to the control", "setting": "B16/F1 melanocytes [1]; test product 80 μg/ml", "result": 34, "unit": "%"},
      {"measurement": "Extracellular melanin (control: 98 μg ± 4 μg/ml)", "setting": "B16/F1 melanocytes [1]; test product 80 μg/ml", "result": "54 ± 3", "unit": "µg/mL"},
      {"measurement": "Cytotoxic effects (summary of Table 2)", "setting": "B16/F1 melanocytes [2]", "result": "absence of cytotoxic effects"},
      {"measurement": "% Decrease of the total amount of protein relative to the control", "setting": "B16/F1 melanocytes [2]; test product 60 μg/ml", "result": "No observed decrease"},
      {"measurement": "% Decrease of the total amount of protein relative to the control", "setting": "B16/F1 melanocytes [2]; test product 80 μg/ml", "result": "No observed decrease"}
    ]},
    {"smiles": "C=CCCCCCCCCC(=O)NC(Cc1ccccc1)C(=O)OCC(O)CO", "note": "(stereo not shown) [Compound (A), N-undecylenoyl phenylalanine monoglyceride]", "values": [
      {"measurement": "Depigmenting effect (summary in text of Table 1)", "setting": "B16/F1 melanocytes [1]", "result": "depigmenting effect"},
      {"measurement": "% Inhibition of extracellular melanin production relative to the control", "setting": "B16/F1 melanocytes [1]; test product 40 μg/ml", "result": 15, "unit": "%"},
      {"measurement": "Extracellular melanin (control: 98 μg ± 4 μg/ml)", "setting": "B16/F1 melanocytes [1]; test product 40 μg/ml, n=6", "result": "84 ± 8", "unit": "µg/mL"},
      {"measurement": "% Inhibition of extracellular melanin production relative to the control", "setting": "B16/F1 melanocytes [1]; test product 80 μg/ml", "result": 58, "unit": "%"},
      {"measurement": "Extracellular melanin (control: 98 μg ± 4 μg/ml)", "setting": "B16/F1 melanocytes [1]; test product 80 μg/ml", "result": "42 ± 1", "unit": "µg/mL"},
      {"measurement": "Cytotoxic effects (summary of Table 2)", "setting": "B16/F1 melanocytes [2]", "result": "absence of cytotoxic effects"},
      {"measurement": "% Decrease of the total amount of protein relative to the control", "setting": "B16/F1 melanocytes [2]; test product 40 μg/ml", "result": "No observed decrease"},
      {"measurement": "% Decrease of the total amount of protein relative to the control", "setting": "B16/F1 melanocytes [2]; test product 80 μg/ml", "result": "No observed decrease"}
    ]}
  ]
}
